Consider 42 molecules from PMC9101642 (Molecules, 2022).

One series relates to MDA-MB-231 cell lines. Kind of series: MTT antiproliferative assay. The class given is cell-based, human. The conditions noted are these: Homo sapiens, MDA-MB-231; virtually screened NCI hits, Table S17; read-out: MDA-MB-231 (IC50). For orientation: Formazan colour is commonly taken as a measure of viable cells.
The next series relates to MCF-7 cell lines. Nature of the series: MTT antiproliferative assay. The conditions noted are these: Homo sapiens, MCF7; virtually screened NCI hits, Table S17; read-out: MCF-7 (IC50). Format: cell-based, human.
Series [1] in a line: MTT antiproliferative assay (neutral control). The conditions noted are these: human.
Another series concerns the target estrogen receptor α. The conditions noted are these: cited from earlier work; for pKi: modeled test set TSMOD2; for pIC50: modeled test set TSMOD1.
Series [2] can be described thus: Liver oxidative stress markers after treatment of MNU-induced rats. Format: in vivo, Wistar rats. The conditions noted are these: liver, dose 50 mg/kg. As to the method:
(§1) Rats were housed at 3 per cage and
(§2) The breast cancer was induced after the MNU (Sigma Aldrich CAS No. 684-93-5) administration. An aqueous solution at a concentration of 10 mg/ml was made by wetting the NMU powder with 3% acetic acid and then dissolving it in 0.9% NaCl solution; a fresh solution was prepared for each injection. Rats were given intraperitoneal (i.p.) 50 mg/kg of MNU on the 50th day of age. Animals were divided into different groups with six animals in each group. Group I (intact control) received 0.9% NaCl solution.
(§3) Groups II-IV and V-VII were introduced with MNU. Two weeks after MNU treatment, animals were treated orally with synthesized compounds and control substances (5 and 50 mg/kg, for groups II-IV and V-VII, respectively) by gavage once per day for six weeks. Animals in the intact control group and untreated MNU group were given vehicle (Tween 80) according to the experimental protocol. […]
Upon finishing the treatment with synthesized compounds, animals were sacrificed, and plasma, serum, and liver samples were collected. […]
Determination of Antioxidant Markers in Liver Homogenate
Rat liver samples were homogenized in phosphate buffer (5 mM, pH = 7.4) to give a 10% (w/v) liver homogenate and then centrifuged at 4000 rpm for 15 min at 4°C. The supernatant of liver homogenate was used for the estimation of reduced glutathione (GSH) and catalase (CAT) levels by the colorimetric method. The contents of malondialdehyde (MDA) in the supernatant of the liver homogenates were determined using 1,1,3,3-tetraethoxypropane as standard. Total protein concentrations were determined according to the method of Lowry using bovine serum albumin as […]

For series [3], the system named is MNU-induced breast cancer. Nature of the series: In vivo anticancer screening, MNU-induced mammary tumorigenesis. The conditions noted are these: dose 50 mg/kg (compounds per os after MNU; MNU alone i.p.). Details: species or system female Wistar rats.
A short description of series [4]: Serum biochemical markers after treatment of MNU-induced rats. Format: in vivo, Wistar rats. Details: TBC: unit not given here. The conditions noted are these: dose 50 mg/kg. The procedure: as §1, §2, §3
Upon finishing the treatment with synthesized compounds, animals were sacrificed, and plasma, serum, and liver samples were collected.
Measurement of Serum Biochemical Markers
The activities of AST and ALT on 340 nm, and ALP on 405 nm, were determined by UV-Vis kinetic methods according to recommendations of the Expert Panel of the IFCC (International Federation of Clinical Chemistry). The colorimetric methods were used for the determination of total bilirubin (Jendrassik-Grof 550 nm method). All kinetic and colorimetric measurements were recorded using a Perkin-Elmer Lambda 25 UV/Vis spectrophotometer. […]

For series [5], the system named is MNU-induced breast cancer tissue. Kind of series: Histopathology of breast sections. The class given is in vivo, Wistar rats. The conditions noted are these: 50 mg/kg of bwt. An excerpt: The impact of selected leads on BC tissue was registered after their administration to experimental animals with MNU-induced BC (Figure 9 and Supplementary Material Figures S211–S218). […] In contrast to this, the administered leads were harmless in both concentrations, neutralizing the MNU-induced changes, judging by the lobuloalveolar units and cuboidal epithelial cells found (Figure 9C,D, and Supplementary Material Figures S214–S218). […]
Histopathological Studies
histopathological changes. […]

[6] abbreviates: MFD 1000 mg/kg (MNU: MTD 100 mg/kg bwt), 5 days.

Structures are written as SMILES. Bounds are passed on as bounds.

Usually IC50 stands for the concentration that inhibits the measured activity by half. Broadly, the pKi is the Ki on a negative log10 scale, so that one unit is a factor of ten. As a reminder, the pIC50 is −log10 of the IC50, conventionally taken in molar units.

`C[C@H]1CCC/C=C/[C@@H]2C[C@H](O)C[C@H]2[C@H](O)/C=C/C(=O)O1` [BFA, Brefeldin A, reference compound]: the IC50 in the series on MDA-MB-231 cell lines is > 100 µM; with MCF-7 cell lines it was 9.01 µM. For the same molecule, the IC50 at 48 h in [1] is > 100 µM.
With `Cc1c(-c2ccc(O)cc2)nn(-c2ccc(O)cc2)c1-c1ccc(OCCN2CCCCC2)cc1` [Compound I3-I-A1], the pKi at estrogen receptor α is 7.57.
On to `CCc1c(-c2ccc(O)cc2)nn(-c2ccc(O)cc2)c1-c1ccc(OCCN2CCCCC2)cc1` [Compound I3-I-A2], for which the pKi on estrogen receptor α is 8.60.
Regarding `CCCc1c(-c2ccc(O)cc2)nn(-c2ccc(O)cc2)c1-c1ccc(OCCN2CCCCC2)cc1` [Compound I3-I-A3], the pKi on estrogen receptor α was 8.36.
With `CCc1c(-c2ccc(O)cc2)nn(-c2ccc(O)cc2)c1-c1ccc(OCCN2CCOCC2)cc1` [Compound I3-I-B], on estrogen receptor α, the pKi is 8.49.
On to `Cc1c(-c2ccc(O)cc2)nn(-c2ccc(O)cc2)c1-c1ccc(OCCN2CCCC2)cc1` [Compound I3-I-C1], for which the pKi at estrogen receptor α is on record as 7.60.
For `CCc1c(-c2ccc(O)cc2)nn(-c2ccc(O)cc2)c1-c1ccc(OCCN2CCCC2)cc1` [Compound I3-I-C2], on estrogen receptor α, the pKi is recorded as 8.72.
For the molecule `CCc1c(-c2ccc(O)cc2)nn(-c2ccc(O)cc2)c1-c1ccc(OCCN(C)C)cc1` [Compound I3-I-D], on estrogen receptor α, the pKi was 8.48.
`CCN(CC)CCOc1ccc(-c2c(C)c(-c3ccc(O)cc3)nn2-c2ccc(O)cc2)cc1` [Compound I3-I-E1]: at estrogen receptor α, the negative-log Ki (pKi) is 8.42.
Regarding `CCc1c(-c2ccc(O)cc2)nn(-c2ccc(O)cc2)c1-c1ccc(OCCN(CC)CC)cc1` [Compound I3-I-E2], the pKi at estrogen receptor α is given as 8.74.
Take `CCc1c(-c2ccc(O)cc2)nn(-c2ccc(O)cc2)c1-c1ccc(OCCN2CCCC2=O)cc1` [Compound I3-I-F]: the pKi on estrogen receptor α was 8.64.
Turning to `CCc1c(-c2ccc(O)cc2)nn(-c2ccc(O)cc2)c1-c1ccc(OCC(O)CO)cc1` (stereo not shown) [Compound I3-I-G], the pKi on estrogen receptor α is on record as 8.37.
For the molecule `CC(C)CNc1nc(NCC(C)C)nc(NCC(C)C)n1` [Compound I4-1a], at estrogen receptor α, the negative logarithm of the Ki (pKi) was 3.19.
In the case of `CCCNc1nc(NCCC)nc(NCCC)n1` [Compound I4-1b], the pKi at estrogen receptor α was 3.10.
Consider `c1ccc(CNc2nc(NCc3ccccc3)nc(NCc3ccccc3)n2)cc1` [Compound I4-1c], for which the pKi at estrogen receptor α is 3.39.
For `O=C(C=CC=Cc1ccccc1)CCc1ccccc1` [Compound I6-1], the pKi at estrogen receptor α is recorded as 6.19.
Regarding `CN(C)c1ccc(C=CC=CC(=O)CCc2ccc(O)cc2)cc1` [Compound I6-10], the pKi at estrogen receptor α is given as 3.63.
In the case of `COc1ccc(CCC(=O)C=CC=Cc2ccc(O)c(OC)c2)cc1` [Compound I6-12], the pKi on estrogen receptor α is given as 5.86.
Consider `COc1cc(C=CC=CC(=O)CCc2ccccc2)ccc1O` [Compound I6-14], for which the pKi at estrogen receptor α was 6.01.
Take `COc1ccc(CCC(=O)C=CC=Cc2ccc([N+](=O)[O-])cc2)cc1` [Compound I6-15]: on estrogen receptor α, the pKi is 5.63.
`O=C(C=CC=Cc1ccc([N+](=O)[O-])cc1)CCc1ccccc1` [Compound I6-16]: at estrogen receptor α, the negative logarithm of the Ki (pKi) is 6.29.
For the molecule `COc1ccc(CCC(=O)C=CC=Cc2ccccc2)cc1` [Compound I6-17], at estrogen receptor α, the pKi is recorded as 5.83.
Consider `COc1ccc(CCC(=O)C=CC=Cc2ccc(N(C)C)cc2)cc1` [Compound I6-18], for which the pKi at estrogen receptor α is 5.66.
On to `CN(C)c1ccc(C=CC=CC(=O)CCc2ccccc2)cc1` [Compound I6-19], for which the pKi on estrogen receptor α is reported as 6.04.
Take `Cc1ccccc1N=Cc1cn(-c2ccccc2)nc1-c1ccccc1` [Compound I11-4a1a]: the pIC50 on estrogen receptor α is recorded as 4.33.
Consider `Cc1cccc(C)c1N=Cc1cn(-c2ccccc2)nc1-c1ccccc1` [Compound I11-4a2], for which, at estrogen receptor α, the pIC50 is listed as 4.13.
Take `Cc1ccc(N=Cc2cn(-c3ccccc3)nc2-c2ccccc2)cc1` [Compound I11-4a3b]: the pIC50 at estrogen receptor α is on record as 4.25.
With `Brc1ccc(N=Cc2cn(-c3ccccc3)nc2-c2ccccc2)cc1` [Compound I11-4a5], the pIC50 at estrogen receptor α was 5.52.
For `Cc1ccc(N=Cc2cn(-c3ccccc3)nc2-c2ccccc2)cc1[N+](=O)[O-]` [Compound I11-4a8], the pIC50 on estrogen receptor α is reported as 5.4.
On to `Clc1ccccc1CN=Cc1cn(-c2ccccc2)nc1-c1ccccc1` [Compound I11-4a9], for which, at estrogen receptor α, the pIC50 is given as 4.89.
As to `FC(F)(F)c1ccccc1CN=Cc1cn(-c2ccccc2)nc1-c1ccccc1` [Compound I11-4a10], at estrogen receptor α, the pIC50 is recorded as 3.61.
As for `Cc1ccccc1N=Cc1cn(-c2ccc([N+](=O)[O-])cc2)nc1-c1ccccc1` [Compound I11-4b1], the pIC50 on estrogen receptor α was 3.58.
With `Cc1ccc(N=Cc2cn(-c3ccc([N+](=O)[O-])cc3)nc2-c2ccccc2)cc1` [Compound I11-4b2], the pIC50 at estrogen receptor α is given as 3.58.
For the molecule `O=[N+]([O-])c1ccc(-n2cc(C=Nc3ccc(Cl)cc3)c(-c3ccccc3)n2)cc1` [Compound I11-4b3], the pIC50 on estrogen receptor α was 3.61.
Take `Cc1ccc(N=Cc2cn(-c3ccc([N+](=O)[O-])cc3)nc2-c2ccccc2)cc1[N+](=O)[O-]` [Compound I11-4b6]: on estrogen receptor α, the pIC50 is on record as 3.63.
With `COc1ccc(-c2cc(=O)c3c(O)c(OC)c(OC)cc3o2)cc1O` [Eupatorin], at estrogen receptor α, the pIC50 is listed as 5.09.
Take `O=c1c(O)c(-c2ccc(O)c(O)c2)oc2cc(O)ccc12` [Fisetin]: at estrogen receptor α, the pIC50 is given as 5.38.
On to `O=c1c(O)c(-c2ccccc2)oc2cc(O)cc(O)c12` [Galangin], for which the pIC50 on estrogen receptor α is given as 4.81.
Regarding `COc1ccc([C@@H]2CC(=O)c3c(O)cc(O)cc3O2)cc1O` [Hesperetin], the pIC50 on estrogen receptor α is reported as 4.4.
Turning to `CN(N=O)C(N)=O` [MNU, Methyl nitrosourea, reference compound], under setting [6], the colon section histopathology entry is recorded as “induced colon”, the heart section histopathology result is reported as “interstitial hydrops”, the kidney section histopathology result is listed as “large size neoplastic lymphocytes infiltrated into the interstitial” and the liver section histopathology result is reported as “numerous numbers of medium to large size neoplastic lymphocytes”. Under setting [6], the lung section histopathology result is given as “alveolar bronchiolar” and the spleen section histopathology entry is listed as “faded red pulp”. Further, the “WL after MFD (day 1, mg)” value (average body weight at day 1, dosing at MFD) came out at 305.44 ± 0.62 mg. Also, the “MFD (5 days)” value (maximum feasible (or tolerated) dose, 5 days per os, 5-1000 mg/kg bwt) is 100 mg/kg. This molecule yielded a CAT in series [2] (catalase activity) of 3.08±0.68. Also, the “TBARS” value in series [2] came to 3.31 ± 0.72 nmol/mg. Besides, in series [2] (superoxide dismutase activity), the “SOD (U/mg)” value came to 3.32±0.14 U/mg. In addition, the “TP” value in series [2] (total protein content) worked out at 51.32 ± 0.43 g/L. Also, in series [3], the “Tumor Burden (week)” value is 4.55 ± 0.15 *^,‡,§,‖,┴ week, the “Tumor Latency (week)” value is on record as 5 *^,†,‡,§,‖,┴ week and the “Tumor Volume (mm^3)” value was found to be 4.48 ± 0.54 mm^3. Also, in [4] (serum), the “ALP (A/L)” value worked out at 232.54±0.32 A/L, the “ALT (A/L)” value is 157.31 A/L, the “AST (U/L)” value stood at 135.43 U/L and the “γ-GT (U/L)” value is 19.43±0.42 U/L. In series [4] (total bilirubin content), this molecule came in with a TBC of 32.34. For the same molecule, the breast section histopathology result in series [5] was “mammary gland carcinoma alongside with massive proliferation of neoplastic epithelial cells (EC)”.
Turning to `O=C1C[C@@H](c2ccc(O)cc2)Oc2cc(O)cc(O)c21` [Naringenin], the pIC50 at estrogen receptor α is reported as 4.18.
As for `O=c1c(O)c(-c2ccc(O)c(O)c2)oc2cc(O)cc(O)c12` [Quercetin], the pIC50 on estrogen receptor α is listed as 4.76.
